# According to patent US20230219952A1, “PROCESS FOR PREPARING METHYL {4,6-DIAMINO-2-[5-FLUORO-1-(2-FLUOROBENZYL)-1H-PYRAZOLO[3,4-B]PYRIDIN-3 -YL]PYRIMIDIN-5-YL} CARBAMATE” (ADVERIO PHARMA GMBH, priority 2020, published 2023):
# Where two headings read alike, the source gives them in different places.
# Legend:
# Assay type in all cases: physicochemical
# [1] = Isolation in an inverting filter centrifuge, industrial scale (isolability)
# Description: In the context of the present invention and as outlined in WO2020/126983, improved isolability of the active compound product, dischargeability of the active compound product after isolation and drying and also conveyability, sieveability and micronizability of the active compound product of the compound of the formula (I) are to be understood as meaning the following, for example: Improved isolability is measurable on an industrial scale for example via a higher area-specific throughput in an inverting filter centrifuge (Example 16). In the context of the present invention the isolation of the active compound product is carried out using for example a filter centrifuge, for example an inverting filter centrifuge. […] This manifests for example in a higher area-specific throughput in the inverting filter centrifuge. On an industrial scale isolation of the material from the process of WO 2013/076168 achieved an average area-specific throughput of 1.6 kg/m^2 h. The average area-specific throughput of the material from the process of the invention was 3.0 kg/m^2 h and thus nearly double the above (Example 16). Higher area-specific throughput in an inverting filter centrifuge. Industrial scale.
# [2] = Sieving of active compound product on an industrial sieving machine (sieveability); conditions: for Sieve throughput of active compound product: industrial scale, Frewitt Oscillowitt MG-800 (2.5 to 4.0 mm) for WO 2013/076168 material, Frewitt Coniwitt TC200 (3 mm) for material of the invention; for Time to sieve 65 kg of active compound product: Frewitt Coniwitt TC200, sieve aperture diameter 3 mm
# Protocol: Improved sieveability is measurable for example via improved feeding into the industrial sieving machine as a result of improved flowability of the active compound product and via fewer sieve blockages, for example via the throughput of active compound product per unit time (Example 17).
# In the context of the present invention the sieving of the active compound product is carried out for example using a Frewitt Coniwitt TC200 sieving machine (sieve aperture diameter 3 mm) or a Frewitt Oscillowitt MG-800 sieving machine (sieve aperture diameter 2.5 mm to 4.0 mm).
# Improved sieveability: The material from the process of the invention is easy to feed into the sieving machine on account of its good flowability. Sieving results in markedly fewer sieve blockages than for material from the process according to route 1. For example on an industrial scale 65 kg of the material from the process of the invention were sievable in <5 min in a Frewitt Coniwitt TC200 sieving machine (sieve aperture diameter 3 mm). This corresponds to >13 kg/min. For comparison sieving material from route 1 via a Frewitt Oscillowitt MG-800 sieving machine (sieve aperture diameter 2.5 mm to 4.0 mm) only achieved throughputs of <10 kg/h. This corresponds to <0.17 kg/min (Example 17). Observed here is a very large difference of a factor of nearly 100 in the sieve throughput of the active compound product of route 1 compared to the active compound product of the invention. This very large difference in sieve throughput results predominantly from the material characteristics of the active compound product and cannot be explained by the different machine types.
# Improved sieve throughput. Industrial scale.
# [3] = Dischargeability from the inverting filter centrifuge, industrial scale; conditions: listed as material from the process of the invention
# Description: Improved dischargeability from the isolation apparatus: The process according to the process of the present invention prevents the formation of a felt-like filter cake having high tear strength. Both after isolation in the pressure filter and after isolation in the filter centrifugation the filter cake is soft and moldable. This prevents blockage of the discharge path. For example on an industrial scale a blockage of the discharge path from the inverting filter centrifuge after isolation of the material from the process of WO 2013/076168 was avoidable only by reducing the filter cake thickness to 8 mm to 9 mm. By contrast in the isolation of the material from the process of the invention an average filter cake height of 25 mm was realized without any blocking of the discharge path being observed.
# [4] = listed as material from the process of the invention
Average area-specific throughput [1] [kg/m^2h],Average area-specific throughput ([1]; listed as material from the process of WO 2013/076168) [kg/m^2h],"Sieve throughput ([2]; Frewitt Oscillowitt MG-800, sieve aperture diameter 2.5 mm to 4.0 mm) [kg/h]","Amount of active compound product sieved in 1 h ([2]; Frewitt Oscillowitt MG-800, sieve aperture diameter 2.5 to 4.0 mm, in 1 h)",Sieve throughput of active compound product [2],Sieve throughput of active compound product ([2]; listed as material from route 1) [kg/min],"Average area-specific throughput [1, 4] [kg/m^2h]",Filter cake thickness at which the discharge path does not become blocked [3] [mm],Time to sieve 65 kg of active compound product [2],"Time to sieve 65 kg of active compound product [2, 4] [min]","Sieve throughput of active compound product [2, 4] [kg/min]",Structure (SMILES)
1.6,1.6,< 10,<10 kg of active compound,i.e. <0.17 kg/min,< 0.17,,,,,,"COC(=O)Nc1c(N)nc(-c2nn(Cc3ccccc3F)c3ncc(F)cc23)nc1N [Process of WO 2013/076168, methyl {4,6-diamino-2-[5-fluoro-1-(2-fluorobenzyl)-1H-pyrazolo[3,4-b]pyridin-3-yl]pyrimidin-5-yl}carbamate, reference compound]"
3.0,,,,i.e. >13 kg/min,,3.0,25,product in <5 min,< 5,> 13,"COC(=O)Nc1c(N)nc(-c2nn(Cc3ccccc3F)c3ncc(F)cc23)nc1N [Process of the invention, methyl {4,6-diamino-2-[5-fluoro-1-(2-fluorobenzyl)-1H-pyrazolo[3,4-b]pyridin-3-yl]pyrimidin-5-yl}carbamate]"
